Source: patent US5958770A, “Glycoalkaloids” (priority 1990, dated 1999)

Assays:
tumour = conditions: cited from earlier work
[1] = Inhibition of tritiated thymidine uptake, Con A stimulated lymphocytes; conditions: human, con a stimulated lymphocytes
[2] = Inhibition of tritiated thymidine uptake, PHA stimulated lymphocytes; conditions: human, pha stimulated lymphocytes
Experimental: (§4) This was cultured for 48 hours and pulsed with tritiated thymidine for a further 24 hours. In the inhibition studies, the cell concentration was 8×10^5 /ml.
(§5) All cells were harvested by vacuum filtration by washing in 250 μl of each of phosphate buffered saline, 5% trichloroacetic acid, 1.0M NaCl and 95% ethanol and subjected to β-scintillatian counting. Similarly, peripheral human blood lymphocytes were isolated and cultured 2×10^5 lymphocytes in CO2 1640TCM 10% HIFCS. Lymphocytes were stimulated with 20 μg/ml PHA, Con A or PWM, and cultured for 48 hrs followed by a 24 hr pulse. […] Cell concentrations were 8×10^4 /well total volume 250 μl. The dpm of the experimental replicates were expressed as a percentage of the mean value of the controls, and the mean value of the experimental replicates calculated.

ovarian cancer cells = test: Inhibition of tritiated thymidine uptake, ovarian cancer cells; conditions: read-out: LD50 (dose to inhibit 50% tritiated thymidine uptake); OvCa
Experimental: (§1) The inhibition of cell replication by steroid alkaloids is determined by the inhibition of the incorporation of ^3 H thymidine into DNA. Using this technique, it should be possible to monitor any preferential inhibition of uptake of ^3 H thymidine by cancer cells.
(§2) Cells were maintained as monolayers in RPM1-1640 tissue culture media (Grant Island Biological Co) buffered with N-2-hydroxy-ethylpiperazine-N-2-ethanesulphonic acid pH 7.5 and supplemented with 10% heat inactivated fetal calf serum (FCS): (i) a human ovarian cancer cell line (C180-135), (ii) HeLa cells, (iii) human fibroblasts, and (iv) as a cell suspension of lymphoblastoid cells (EBV transformed lymphocytes). Monolayers were trypsinized to form a cell suspension. […] Cell concentration was adjusted to 2×10^5 cells/ml, and 2×10^4 cells were added in replicates of 10 to the wells (1×10^5 /ml well) of HA microtitre plates (Millipore Corp., USA). The cells were preincubated at 37.5° C. for 7 hours prior to the addition of 50 μl of the cytotoxic drug followed by the addition of 50 μl 5 uCi/ml of ^3 H thymidine, in the same tissue culture media 21 hours later. Incubation was continued for a total of 24 hours, which includes the pre-incubation time.
(§3) Appropriate DMSO cytotoxicity studies were also conducted. Solasodine glycosides were supplied as a mixture (BEC), and as separate components, solamargine, solasonine, a mixture of di- and mono-glycosides and the aglycone solasodine. All cytotoxic drugs were further diluted with HIFCS/TCM before testing. 5×10^4 ovarian cancer cells (200 μl/chamber of a chamber of microscope slide (Lab Tek Miles Scientific) were used. Controls received 50 μl HIFCS/TCM and experimental chambers 50 μl of solasodine glycosides (BEC) 1.5-3.8 μM/L after 7 hrs preincubation, and incubated for a further 3 hrs. Similarly, the cells were treated with the aglycone solasodine 19.4-96.8 μM/L. The cells were fixed and examined by the Papanicolaou method.

[3] = tested on: ovarian cancer cells, HeLa cells, lymphoblastoid cells, fibroblasts; test: Cytotoxicity / inhibition of tritiated thymidine uptake, cell types taken together; conditions: normal versus cancer cells
Experimental: as §1, §2, §3

[4] = Inhibition of tritiated thymidine uptake, unstimulated lymphocytes; conditions: human, unstimulated lymphocytes
Experimental: as §4, §5

[5] = Inhibition of tritiated thymidine uptake, PWM stimulated lymphocytes; conditions: human, pwm stimulated lymphocytes
Experimental: as §4, §5

[6] = tested on: lymphoblastoid cells (EBV transformed lymphocytes); test: cells
Experimental: as §1, §2, §3

HeLa cells = test: cells
Experimental: as §1, §2, §3

human fibroblasts = test: cells; conditions: FB; NSE = no significant effect
Experimental: as §1, §2, §3

cancer = conditions: rats; cited from earlier work

In the case of `C[C@H]1CC[C@]2(NC1)O[C@H]1C[C@H]3[C@@H]4CC=C5C[C@@H](O[C@@H]6O[C@H](CO)[C@@H](O[C@@H]7O[C@@H](C)[C@H](O)[C@@H](O)[C@H]7O)[C@H](O)[C@H]6O[C@@H]6O[C@@H](C)[C@H](O)[C@@H](O)[C@H]6O)CC[C@]5(C)[C@H]4CC[C@]3(C)[C@H]1[C@@H]2C` [B-solamarine], the “tumour inhibition” value (tumour) is listed as “tumour inhibitor”.
`O=C(O)CCCc1ccc(N(CCCl)CCCl)cc1` [chlorambucil, reference compound] gave a CC50 [1] of 33 µM, a CC50 [2] of 24.6 µM and an IC50 (ovarian cancer cells) of 60 µM. For the same molecule, the “cytotoxicity to normal cells relative to cancer cells” value [3] was “equally or more cytotoxic to normal cells relative to cancer cells”, the CC50 [4] was 33 µM and the CC50 [5] was 22 µM. The “TR50 (thymidine ratio relative to ovarian cancer cells)” value ([6]; LCL / OvCa) was 0.45, the IC50 ([6]; read-out: LD50 (dose to inhibit 50% tritiated thymidine uptake), LCL) was 27 µM and the “TR50 (thymidine ratio relative to ovarian cancer cells)” value (HeLa cells; HeLa / OvCa) was 0.79. The IC50 (HeLa cells; read-out: LD50 (dose to inhibit 50% tritiated thymidine uptake), HeLa) was 47.5 µM and the “LD50 (dose to inhibit 50% tritiated thymidine uptake)” value (human fibroblasts) was “NSE”.
For “rhamnosyl [4→3] Solasodine [Solaplumbin]”, the “anticancer properties” value (cancer) is given as “anticancer properties in rats”.
